The text below walks through data of patent US20240208950A1, “COMPOSITIONS AND METHODS FOR TREATMENT OF CERVICAL AND OVARIAN CANCER” (SOUTH DAKOTA BOARD OF REGENTS, priority 2021, published 2024).

The structures appear in SMILES notation.

This assay deals with ovarian cancer cell line A2780. The assay can be described thus: MTT cell viable assay (cytotoxicity and anti-proliferation). In kind it is cell-based. As to conditions: Homo sapiens. On the procedure:
A biological assay was performed to study the potency of ORM-analogs by observing their pharmaceutical effects on living tissue (in vitro) and the effects of these analogs of unknown potency were compared to the effects of the standard (ormeloxifene). An MTT cell viable assay was first conducted to measure the cytotoxicity and anti-proliferation activity of synthesized analogs (Table 2 and FIG. 2).

Broadly, the IC50 is the midpoint of a concentration-inhibition curve. A lower IC50 goes with higher potency.

As for `COc1ccc2c(c1)OC(C)(C)C(c1ccccc1)C2c1ccc(OCCN2CCCC2)cc1` (stereo not shown) [Ormeloxifene, reference compound], the midpoint of inhibition, the IC50, lay at 17.5 µM.
